Biological target: mTOR/GbL/Raptor (mTORC1) (Homo sapiens, UniProt P42345)
Experiment: mTOR/GbL/Raptor (mTORC1) ELISA assay
Format: biochemical
Settings: phosphorylation of 4E-BP1; 0.2 nM mTORC1, 10 μM ATP; read-out: IC50 in this assay (mTORC1 ELISA)
Summary of the method: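 Human mTORC1 (0.2 nM) phosphorylated 50 nM His-tagged 4E-BP1 with 10 µM ATP in HEPES pH 7.2 containing 10 mM MnCl2, 120 min at ambient temperature. Substrate was captured on Ni-chelate plates; phospho-4E-BP1 was detected by primary antibody and HRP secondary with luminescence.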

**Q.** `CC[C@@H](C)NCc1nc2c(c(N3CCOc4ccc(-c5cnc6nc(C)[nH]c6c5)cc4C3)n1)CC(C)(C)CC2` [Example 300, (2R)-N-({6,6-dimethyl-4-[7-(2-methyl-1H-imidazo[4,5-b]pyridin-6-yl)-2,3-dihydro-1,4-benzoxazepin-4(5H)-yl]-5,6,7,8-tetrahydroquinazolin-2-yl}methyl)butan-2-amine] was tested. Which IC50 did it give?
**A.** 0.01 to 0.05 µM

**Q.** For `CC1(C)CCc2ncnc(N3CCOc4ccc(-c5cnc(N)c(S(C)(=O)=O)c5)cc4C3)c2C1` [Example 512, 5-[4-(6,6-dimethyl-5,6,7,8-tetrahydroquinazolin-4-yl)-2,3,4,5-tetrahydro-1,4-benzoxazepin-7-yl]-3-(methylsulfonyl)pyridin-2-amine], which IC50 is on record?
**A.** 0.01 to 0.05 µM

**Q.** Which IC50 does the source give for `Cc1nc2ccc(-c3ccc4c(c3)CN(c3ncnc(C)c3Cc3ccc(Cl)cc3)CCO4)cc2[nH]1` [Example 80, 4-{5-[(4-chlorophenyl)methyl]-6-methylpyrimidin-4-yl}-7-(2-methyl-1H-benzimidazol-6-yl)-2,3,4,5-tetrahydro-1,4-benzoxazepine] here?
**A.** ≤ 0.01 µM

**Q.** How did the IC50 turn out when `Cc1nc2ncc(-c3ccc4c(c3)CN(c3nc(CNC(C)C5CC5)nc5c3CC(C)(C)CC5)CCO4)cc2[nH]1` (stereo not drawn) [Example 360, 1-cyclopropyl-N-({6,6-dimethyl-4-[7-(2-methyl-1H-imidazo[4,5-b]pyridin-6-yl)-2,3-dihydro-1,4-benzoxazepin-4(5H)-yl]-5,6,7,8-tetrahydroquinazolin-2-yl}methyl)ethanamine] was run?
**A.** 0.01 to 0.05 µM

**Q.** With `CC1(C)CCc2ncnc(N3CCOc4ccc(-c5cnc(Cl)c(S(=O)(=O)N6CC[C@H](N)C6)c5)cc4C3)c2C1` [Example 307, (3S)-1-({2-chloro-5-[4-(6,6-dimethyl-5,6,7,8-tetrahydroquinazolin-4-yl)-2,3,4,5-tetrahydro-1,4-benzoxazepin-7-yl]pyridin-3-yl}sulfonyl)pyrrolidin-3-amine] as the compound, how does the IC50 read?
**A.** 0.25 to 1 µM

**Q.** `Cc1nc2ccc(-c3ccc4c(c3)CN(c3ncnc5c3CCC(C)(C)C5)CCO4)cc2[nH]1` [Example 95, 4-(7,7-dimethyl-5,6,7,8-tetrahydroquinazolin-4-yl)-7-(2-methyl-1H-benzimidazol-6-yl)-2,3,4,5-tetrahydro-1,4-benzoxazepine] was tested. Which IC50 did it give?
**A.** 0.01 to 0.05 µM

**Q.** For `CSc1nc2ccc(-c3ccc4c(c3)CN(c3ccnc5ccccc35)CCO4)cc2[nH]1` [Example 207, 7-[2-(methylthio)-1H-benzimidazol-6-yl]-4-quinolin-4-yl-2,3,4,5-tetrahydro-1,4-benzoxazepine], which IC50 is on record?
**A.** 0.05 to 0.25 µM

**Q.** Which IC50 does the source give for `CC1(C)CCc2ncnc(N3CCOc4ccc(-c5cnc(N)c(S(=O)(=O)N[C@H]6CC[C@H](N)CC6)c5)cc4C3)c2C1` [Example 416, 2-amino-N-(trans-4-aminocyclohexyl)-5-[4-(6,6-dimethyl-5,6,7,8-tetrahydroquinazolin-4-yl)-2,3,4,5-tetrahydro-1,4-benzoxazepin-7-yl]pyridine-3-sulfonamide] here?
**A.** 0.05 to 0.25 µM

**Q.** How did the IC50 turn out when `Cc1nc(N)nc(N2CCOc3ccc(-c4ccc5[nH]cnc5c4)cc3C2)c1Cc1ccc(F)cc1` [Example 651, 4-[7-(1H-benzimidazol-5-yl)-2,3-dihydro-1,4-benzoxazepin-4(5H)-yl]-5-[(4-fluorophenyl)methyl]-6-methylpyrimidin-2-amine] was run?
**A.** ≤ 0.01 µM

**Q.** How did the IC50 turn out when `CCNc1nc2ccc(-c3ccc4c(c3)CN(c3ncnc(Nc5ccc(OC)cc5)c3C)CCO4)cc2[nH]1` [Example 640, N-ethyl-6-[4-(5-methyl-6-{[4-(methyloxy)phenyl]amino}pyrimidin-4-yl)-2,3,4,5-tetrahydro-1,4-benzoxazepin-7-yl]-1H-benzimidazol-2-amine] was run?
**A.** 0.25 to 1 µM

**Q.** How did the IC50 turn out when `Cc1ncnc(N2CCOc3ccc(-c4ccc5nc(N)nn5c4)cc3C2)c1Cc1ccc(F)cc1` [Example 141, 6-(4-{5-[(4-fluorophenyl)methyl]-6-methylpyrimidin-4-yl}-2,3,4,5-tetrahydro-1,4-benzoxazepin-7-yl)[1,2,4]triazolo[1,5-a]pyridin-2-amine] was run?
**A.** 0.01 to 0.05 µM

**Q.** `CC1(C)CCc2ncnc(N3CCOc4ccc(-c5cnc(N)nc5)cc4C3)c2C1` [Example 523, 5-[4-(6,6-dimethyl-5,6,7,8-tetrahydroquinazolin-4-yl)-2,3,4,5-tetrahydro-1,4-benzoxazepin-7-yl]pyrimidin-2-amine] was tested. Which IC50 did it give?
**A.** 0.05 to 0.25 µM

**Q.** For `CC(C)(N)CNS(=O)(=O)c1cc(-c2ccc3c(c2)CN(c2ncnc4c2CC(C)(C)CC4)CCO3)cnc1N` [Example 406, 2-amino-N-(2-amino-2-methylpropyl)-5-[4-(6,6-dimethyl-5,6,7,8-tetrahydroquinazolin-4-yl)-2,3,4,5-tetrahydro-1,4-benzoxazepin-7-yl]pyridine-3-sulfonamide], which IC50 is on record?
**A.** ≤ 0.01 µM

**Q.** How did the IC50 turn out when `CC(CO)NS(=O)(=O)c1cc(-c2ccc3c(c2)CN(c2ncnc4c2CC(C)(C)CC4)CCO3)cnc1N` (stereo not drawn) [Example 368, 2-amino-5-[4-(6,6-dimethyl-5,6,7,8-tetrahydroquinazolin-4-yl)-2,3,4,5-tetrahydro-1,4-benzoxazepin-7-yl]-N-(2-hydroxy-1-methylethyl)pyridine-3-sulfonamide] was run?
**A.** 0.01 to 0.05 µM

**Q.** For `CC1(C)CCc2ncnc(N3CCOc4ccc(-c5cnc(N)c(S(=O)(=O)N6CC(O)(CO)C6)c5)cc4C3)c2C1` [Example 314, 1-({2-amino-5-[4-(6,6-dimethyl-5,6,7,8-tetrahydroquinazolin-4-yl)-2,3,4,5-tetrahydro-1,4-benbzoxazepin-7-yl]pyridin-3-yl}sulfonyl)-3-(hydroxymethyl)azetidin-3-ol], which IC50 is on record?
**A.** 0.01 to 0.05 µM

**Q.** For `c1ccc2c(N3CCOc4ccc(-c5ccc6cn[nH]c6c5)cc4C3)ccnc2c1` [Example 136, 7-(1H-indazol-6-yl)-4-quinolin-4-yl-2,3,4,5-tetrahydro-1,4-benzoxazepine], which IC50 is on record?
**A.** 1 to 2 µM

**Q.** `CC1(C)CCc2ncnc(N3CCOc4ccc(-c5cnc(N)c(S(=O)(=O)NC6CCC6)c5)cc4C3)c2C1` [Example 427, 2-amino-N-cyclobutyl-5-[4-(6,6-dimethyl-5,6,7,8-tetrahydroquinazolin-4-yl)-2,3,4,5-tetrahydro-1,4-benzoxazepin-7-yl]pyridine-3-sulfonamide] was tested. Which IC50 did it give?
**A.** 0.05 to 0.25 µM

**Q.** Which IC50 does the source give for `CNC(=O)c1ccc(-c2ccc3c(c2)CN(c2ccnc4ccccc24)CCO3)cc1` [Example 239, N-methyl-4-(4-quinolin-4-yl-2,3,4,5-tetrahydro-1,4-benzoxazepin-7-yl)benzamide] here?
**A.** 0.05 to 0.25 µM

**Q.** For `CC[C@H]1CCc2c(ncnc2N2CCOc3ccc(-c4cnc5nc(N)[nH]c5c4)cc3C2)C1` [Example 537, 6-{4-[(7S)-7-ethyl-5,6,7,8-tetrahydroquinazolin-4-yl]-2,3,4,5-tetrahydro-1,4-benzoxazepin-7-yl}-1H-imidazo[4,5-b]pyridin-2-amine], which IC50 is on record?
**A.** ≤ 0.01 µM

**Q.** `C=Cc1nc2c(c(N3CCOc4ccc(-c5cnc6[nH]c(C)nc6c5)cc4C3)n1)CC(C)(C)CC2` [Example 465, 4-(2-ethenyl-6,6-dimethyl-5,6,7,8-tetrahydroquinazolin-4-yl)-7-(2-methyl-3H-imidazo[4,5-b]pyridin-6-yl)-2,3,4,5-tetrahydro-1,4-benzoxazepine] was tested. Which IC50 did it give?
**A.** 0.01 to 0.05 µM

**Q.** Which IC50 does the source give for `CC1(C)CCc2ncnc(N3CCOc4ccc(-c5cnc(N)c(S(=O)(=O)NCC(F)(F)F)c5)cc4C3)c2C1` [Example 365, 2-amino-5-[4-(6,6-dimethyl-5,6,7,8-tetrahydroquinazolin-4-yl)-2,3,4,5-tetrahydro-1,4-benzoxazepin-7-yl]-N-(2,2,2-trifluoroethyl)pyridine-3-sulfonamide] here?
**A.** 0.01 to 0.05 µM
